As a reminder, the IC50 is the concentration at which inhibition is half-maximal.

Data on 33 compounds can be found in patent US8710043B2, “TRPM8 antagonists and their use in treatments” (Amgen Inc., priority 2011, dated 2014).

SMILES strings stand for the structures.

The assay deals with T1, human TRPM8 (Homo sapiens, UniProt Q7Z2W7).
T1 construct: expressed in transfected cells; host or cells: Chinese hamster ovary (CHO) cells, T-REx tetracycline-inducible system, co-transfected with aequorin
Description: Luminescence readout assay for measuring intracellular calcium, icilin activation. The assay is classed as cell-based. The settings on record: CHO cells expressing human TRPM8, aequorin luminescence, 1 μM icilin activation; read-out: hTRPM8 IC50. In short, it runs like this:
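The read-out was luminescence reporting intracellular calcium, recorded by a CCD-based luminometer. Compounds were preincubated for 2.5 min before agonist challenge with 1 μM icilin. Human TRPM8 was expressed in a stable T-REx CHO line, induced with 0.5 μg/mL tetracycline the day before.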
On the technique in general: Calcium assays in cells follow changes in intracellular calcium, usually with a dye or a luminescent sensor.

T1 sequence (Q7Z2W7 whole entry): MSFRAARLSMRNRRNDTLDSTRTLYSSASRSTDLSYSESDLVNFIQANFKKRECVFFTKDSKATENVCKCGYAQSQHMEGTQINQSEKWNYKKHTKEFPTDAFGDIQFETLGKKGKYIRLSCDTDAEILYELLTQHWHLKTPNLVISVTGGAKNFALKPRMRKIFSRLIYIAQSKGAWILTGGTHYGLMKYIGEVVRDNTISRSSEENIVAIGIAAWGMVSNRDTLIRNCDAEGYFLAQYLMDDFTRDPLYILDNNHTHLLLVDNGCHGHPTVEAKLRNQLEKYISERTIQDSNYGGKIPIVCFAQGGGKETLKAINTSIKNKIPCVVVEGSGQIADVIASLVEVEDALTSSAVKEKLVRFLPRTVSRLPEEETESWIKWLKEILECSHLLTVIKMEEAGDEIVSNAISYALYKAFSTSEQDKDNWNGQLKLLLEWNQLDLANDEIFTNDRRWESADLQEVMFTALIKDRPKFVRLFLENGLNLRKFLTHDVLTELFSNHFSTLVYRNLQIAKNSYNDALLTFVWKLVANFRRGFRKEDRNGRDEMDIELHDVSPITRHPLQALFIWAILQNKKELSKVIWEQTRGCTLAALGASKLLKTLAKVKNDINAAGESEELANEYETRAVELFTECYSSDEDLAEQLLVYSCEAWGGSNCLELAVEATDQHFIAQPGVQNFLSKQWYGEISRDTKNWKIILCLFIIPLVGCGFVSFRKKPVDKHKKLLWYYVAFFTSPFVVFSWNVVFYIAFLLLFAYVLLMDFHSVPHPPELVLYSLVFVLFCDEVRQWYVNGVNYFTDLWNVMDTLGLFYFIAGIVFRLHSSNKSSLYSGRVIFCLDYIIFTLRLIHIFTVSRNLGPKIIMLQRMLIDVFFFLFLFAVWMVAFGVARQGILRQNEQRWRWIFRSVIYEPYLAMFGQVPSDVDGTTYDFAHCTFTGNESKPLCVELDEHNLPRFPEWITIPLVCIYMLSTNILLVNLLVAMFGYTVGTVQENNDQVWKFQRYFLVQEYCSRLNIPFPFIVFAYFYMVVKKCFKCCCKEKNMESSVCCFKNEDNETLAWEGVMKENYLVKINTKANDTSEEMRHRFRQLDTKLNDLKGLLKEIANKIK

Regarding `COC(C)(C)C(=O)N[C@@H](c1ccc(C(F)(F)F)cc1)c1ncccc1C(F)(F)F` [Example 240, (S)-2-methoxy-2-methyl-N-((4-(trifluoromethyl)phenyl)(3-(trifluoromethyl)pyridin-2-yl)methyl)propanamide], the IC50 amounted to 0.081 µM.
The result for `O=C(N[C@@H](c1ccc(C(F)(F)F)cc1)c1ccccc1Br)c1ccc2ncccc2c1` [Example 256, (S)-N-((2-bromophenyl)(4-(trifluoromethyl)phenyl)methyl)quinoline-6-carboxamide 2,2,2-trifluoro acetate, 2,2,2-trifluoroacetate] reads 0.302 µM; that for `O=C(N[C@@H](c1ccc(Cl)cc1)c1ncccc1C(F)(F)F)c1ccc2cccnc2c1` [Example 6, (S)-N-((4-chlorophenyl)(3-(trifluoromethyl)pyridin-2-yl)methyl)quinoline-7-carboxamide], 0.0739 µM; that for `O=C(N[C@@H](c1ccc(Cl)c(Cl)c1)c1ncccc1C(F)(F)F)c1ccc2cccnc2c1` [Example 10], 0.0205 µM.
In the case of `CS(=O)(=O)c1cccc(C(=O)N[C@@H](c2ccc(C(F)(F)F)cc2)c2ncccc2F)c1` [Example 216, (S)-N-((3-fluoropyridin-2-yl)(4-(trifluoromethyl)phenyl)methyl)-3-(methylsulfonyl)benzamide], the IC50 stood at 0.143 µM.
For `O=C1COc2c(cccc2C(=O)N[C@@H](c2ccc(C(F)(F)F)cc2)c2ncccc2F)N1` [Example 77], the IC50 is 0.053 µM.
Take `CS(=O)(=O)c1ccc(C(=O)N[C@@H](c2ccc(C(F)(F)F)cc2)c2ncccc2F)cc1` [Example 217, (S)-N-((3-fluoropyridin-2-yl)(4-(trifluoromethyl)phenyl)methyl)-4-(methylsulfonyl)benzamide]: the IC50 is 0.147 µM.
The result for `CC(C)(C(=O)O)C(=O)N[C@@H](c1ccc(C(F)(F)F)cc1)c1ncccc1C(F)(F)F` [Example 243, (S)-2,2-dimethyl-3-oxo-3-(((4-(trifluoromethyl)phenyl)(3-(trifluoromethyl)pyridin-2-yl)methyl)amino)propanoic acid] reads 1.44 µM.
`O=C(N[C@@H](c1ccc(C(F)(F)F)cc1)c1ncccc1C(F)(F)F)c1ccc2nnnn2c1` [Example 311, (S)-N-((4-(trifluoromethyl)phenyl)(3-(trifluoromethyl)pyridin-2-yl)methyl)tetrazolo[1,5-a]pyridine-6-carboxamide]: the IC50 turned out to be 0.0278 µM.
The result for `O=C(N[C@@H](c1ccc(Cl)c(Cl)c1)c1ncccc1C(F)(F)F)c1ccc(=O)[nH]c1` [Example 3, (S)-N-((3,4-dichlorophenyl)(3-(trifluoromethyl)pyridin-2-yl)methyl)-6-hydroxynicotinamide] reads 0.0177 µM; that for `COc1ccc([C@H](NC(=O)c2ccc(=O)[nH]c2)c2ncccc2F)cc1` [Example 342, (S)-N-((3-fluoropyridin-2-yl)(4-methoxyphenyl)methyl)-6-oxo-1,6-dihydropyridine-3-carboxamide], 0.255 µM; that for `O=C(N[C@@H](c1ccc(C(F)(F)F)cc1)c1ncccc1C(F)(F)F)c1ccc2c(c1)C(=O)N(c1ccccn1)C2=O` [Example 99, (S)-1,3-dioxo-2-(pyridin-2-yl)-N-((4-(trifluoromethyl)phenyl)(3-(trifluoromethyl)pydin-2-yl)methyl)isoindoline-5-carboxamide 2,2,2-trifluoroacetate], 0.129 µM.
The result for `O=C(CN1CCOC1=O)N[C@@H](c1ccc(C(F)(F)F)cc1)c1ncccc1C(F)(F)F` [Example 154, (S)-2-(2-oxooxazolidin-3-yl)-N-((4-(trifluoromethyl)phenyl)(3-(trifluoromethyl)pyridin-2-yl)methyl)acetamide] reads 2.53 µM; that for `COC(=O)c1ccc(C(=O)N[C@@H](c2ccc(C(F)(F)F)cc2)c2ncccc2C(F)(F)F)cc1` [Example 140, (S)-methyl 4-(((4-(trifluoromethyl)phenyl)(3-(trifluoro-methyl)pyridin-2-yl)methyl)carbamoyl)benzoate], 0.0527 µM.
The result for `O=C(N[C@@H](c1ccc(C(F)(F)F)cc1)c1ncccc1C(F)(F)F)c1ccn2nnnc2c1` [Example 312, (S)-N-((4-(trifluoromethyl)phenyl)(3-(trifluoromethyl)pyridin-2-yl)methyl)tetrazolo[1,5-a]pyridine-7-carboxamide] reads 0.0252 µM.
With `Cc1ncsc1CCC(=O)N[C@@H](c1ccc(C(F)(F)F)cc1)c1ncccc1C(F)(F)F` [Example 145, (S)-3-(4-methylthiazol-5-yl)-N-((4-(trifluoromethyl)phenyl)(3-(trifluoromethyl)pyridin-2-yl)methyl)propanamide], the concentration for half-maximal inhibition (IC50) came to 0.0852 µM.
Consider `O=C(N[C@@H](c1ccc(F)cc1)c1ncccc1F)c1ccc(=O)[nH]c1` [Example 340, (S)-N-((4-fluorophenyl)(3-fluoropyridin-2-yl)methyl)-6-oxo-1,6-dihydropyridine-3-carboxamide], for which the IC50 was 0.808 µM.
Consider `O=C(N[C@@H](c1cnc2c(F)cccc2c1)c1ncccc1C(F)(F)F)c1ccc2cccnc2c1` [Example 20, (S)-N-((8-fluoroquinolin-3-yl)(3-(trifluoromethyl)pyridin-2-yl)methyl)quinoline-7-carboxamide], for which the IC50 came out at 0.187 µM.
In the case of `O=C(N[C@@H](c1ccc(OC(F)(F)F)c(F)c1)c1ncccc1F)c1c[nH]c(=O)cn1` [Example 353, (S)-N-((3-fluoro-4-(trifluoromethoxy)phenyl)(3-fluoropyridin-2-yl)methyl)-5-oxo-4,5-dihydropyrazine-2-carboxamide], the IC50 was 0.0277 µM.
The result for `O=C(Cc1ccccn1)N[C@@H](c1ccc(OC(F)(F)F)c(F)c1)c1ncccc1F` [Example 288, (S)-N-((3-fluoro-4-(trifluoromethoxy)phenyl)(3-fluoropyridin-2-yl)methyl)-2-(pyridin-2-yl)acetamide] reads 0.139 µM.
For `COc1cncc(C(=O)N[C@@H](c2ccc(C(F)(F)F)cc2)c2ncccc2C(F)(F)F)c1` [Example 38, (S)-5-methoxy-N-((4-(trifluoromethyl)phenyl)(3-(trifluoromethyl)pyridin-2-yl)methyl)nicotinamide], the IC50 worked out at 0.0777 µM.
The result for `O=C(N[C@@H](c1ccc(OC(F)(F)F)c(F)c1)c1ncccc1C(F)(F)F)c1ccc(=O)[nH]c1` [Example 383, (S)-N-((3-fluoro-4-(tritluoromethoxy)phenyl)(3-(trifluoromethyl)pyridin-2-yl)methyl)-6-oxo-1,6-dihydropyridine-3-carboxamide] reads 0.0079 µM; that for `O=C(NC(c1ccc(C(F)(F)F)cc1)c1ncccc1F)c1ccc2nccnc2c1` (stereo not drawn) [Example 202, N-((3-fluoropyridin-2-yl)(4-(trifluoromethyl)phenyl)methyl)quinoxaline-6-carboxamide], 0.0352 µM.
The result for `Cc1cccnc1[C@@H](NC(=O)c1ccc(-c2nc(=O)o[nH]2)cc1)c1ccc(C(F)(F)F)cc1` [Example 323, (S)-N-((3-methylpyridin-2-yl)(4-(trifluoromethyl)phenyl)methyl)-4-(5-oxo-2,5-dihydro-1,2,4-oxadiazol-3-yl)benzamide] reads 0.0367 µM; that for `Cc1cccnc1[C@@H](NC(=O)c1ccc(=O)n(C)c1)c1ccc(OC(F)(F)F)cc1` [Example 360, (S)-1-methyl-N-((3-methylpyridin-2-yl)(4-(trifluoromethoxy)phenyl)methyl)-6-oxo-1,6-dihydropyridine-3-carboxamide], 0.02 µM; that for `Cn1cc(C(=O)N[C@@H](c2ccc(Cl)c(F)c2)c2ncccc2F)ccc1=O` [Example 345, (S)-N-((4-chloro-3-fluorophenyl)(3-fluoropyridin-2-yl)methyl)-1-methyl-6-oxo-1,6-dihydropyridine-3-carboxamide], 0.102 µM.
Regarding `O=C(N[C@@H](c1ccc(C(F)(F)F)cc1)c1ncccc1C(F)(F)F)c1c[nH]c2ncccc12` [Example 43, (S)-N-((4-(trifluoromethyl)phenyl)(3-(trifluoromethyl)pyridin-2-yl)methyl)-1H-pyrrolo[2,3-b]pyridine-3-carboxamide], the IC50 is 0.0245 µM.
For the compound `O=C(N[C@@H](c1ccc(OC(F)(F)F)c(F)c1)c1ncccc1F)c1ccc2oc(=O)[nH]c2n1` [Example 425, (S)—N-((3-Fluoro-4-(trifluoromethoxy)phenyl)(3-fluoropyridin-2-yl)methyl)-2-oxo-2,3-dihydrooxazolo[4,5-b]pyridine-5-carboxamide], the IC50 worked out at 0.0105 µM.
Next, `Cn1cc(C(=O)N[C@@H](c2ccc(F)c(F)c2)c2ncccc2F)ccc1=O` [Example 332, (S)-N-((3,4-difluorophenyl)(3-fluoropyridin-2-yl)methyl)-1-methyl-6-oxo-1,6-dihydropyridine-3-carboxamide]: 0.268 µM; `Cc1ccc([C@H](NC(=O)c2ccc(=O)[nH]c2)c2ncccc2F)cc1F` [Example 334, (S)-N-((3-fluoro-4-methylphenyl)(3-fluoropyridin-2-yl)methyl)-6-oxo-1,6-dihydropyridine-3-carboxamide]: 0.103 µM.
`Cc1ccc([C@H](NC(=O)c2ccc(=O)[nH]c2)c2ncccc2F)cc1C` [Example 380, (S)-N-((3,4-dimethylphenyl)(3-fluoropyridin-2-yl)methyl)-6-oxo-1,6-dihydropyridine-3-carboxamide]: the IC50 was 0.245 µM.
The result for `O=C(N[C@@H](c1ccc(OC(F)(F)F)c(F)c1)c1ncccc1Br)c1ccc2oc(=O)[nH]c2c1` [Example 384, (S)-N-((3-bromopyridin-2-yl)(3-fluoro-4-(trifluoromethoxy)phenyl)methyl)-2-oxo-2,3-dihydrobenzo[d]oxazole-5-carboxamide] reads 0.0058 µM.
For the compound `CC(C)c1ccc(C(=O)N[C@@H](c2ccc(C(F)(F)F)cc2)c2ncccc2C(F)(F)F)cc1` [Example 127, (S)-4-isopropyl-N-((4-(trifluoromethyl)phenyl)(3-(trifluoromethyl)pyridin-2-yl)methyl)benzamide], the IC50 was 0.584 µM.
